According to PubChem BioAssay (NCI):
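Five compound concentrations were applied to cells in 96-well plates for 48 hours; endpoints were derived by simple linear interpolation of the resulting dose-response curve. GI50: concentration for 50% inhibition of growth. TGI: total growth inhibition.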

Key:
Test in all cases: NCI-60 cell line screen, 48 h
SK-OV-3 ovarian = tested on: SK-OV-3 ovarian
CCRF-CEM leukemia = tested on: CCRF-CEM leukemia
SF-539 CNS = tested on: SF-539 CNS
EKVX NSCLC = tested on: EKVX NSCLC
UO-31 renal = tested on: UO-31 renal
NCI-H226 lung = tested on: NCI-H226 lung
MALME-3M melanoma = tested on: MALME-3M melanoma
HT29 colon = tested on: HT29 colon
A498 renal = tested on: A498 renal
HL-60(TB) leukemia = tested on: HL-60(TB) leukemia

SMILES | TGI (SK-OV-3 ovarian) | TGI (CCRF-CEM leukemia) | TGI (SF-539 CNS) | TGI (EKVX NSCLC) | TGI (UO-31 renal) | TGI (NCI-H226 lung) | TGI (MALME-3M melanoma) | TGI (HT29 colon) | TGI (A498 renal) | TGI (HL-60(TB) leukemia) | GI50 (SK-OV-3 ovarian) | GI50 (SF-539 CNS) | GI50 (EKVX NSCLC) | GI50 (UO-31 renal) | GI50 (NCI-H226 lung) | GI50 (MALME-3M melanoma) | GI50 (HT29 colon) | GI50 (CCRF-CEM leukemia) | GI50 (HL-60(TB) leukemia) | GI50 (A498 renal)
Cc1ccc(S(=O)(=O)N/N=C2\C=CC3(CC2)C(=O)N(I)c2ccccc23)cc1 (configuration not stated) | > 100 µM | > 100 µM | > 100 µM | > 100 µM | > 100 µM | > 100 µM | 6.82 µM | > 100 µM | > 100 µM |  |  |  |  |  |  |  |  |  |  | 
C[N+](C)(CCNc1ccc(NCC[N+](C)(C)Cc2ccc([N+](=O)[O-])cc2)c2c1C(=O)c1c(O)ccc(O)c1C2=O)Cc1ccc([N+](=O)[O-])cc1 | > 50 µM | > 50 µM | > 50 µM | > 50 µM | > 50 µM |  | > 50 µM | > 50 µM | > 50 µM | > 50 µM |  |  |  |  |  |  |  |  |  | 
CNC(=S)N/N=C/C(C)=N/NC(=S)NC | > 100 µM |  | > 100 µM | > 100 µM | > 100 µM |  | > 100 µM |  | > 100 µM |  |  |  |  |  |  |  |  |  |  | 
CN(C(=O)Cc1ccccc1)n1cn[n+](CC(=O)OC(C)(C)C)c1 | > 10 µM | > 10 µM | > 10 µM | > 10 µM | > 10 µM | > 10 µM | > 10 µM | > 10 µM | > 10 µM |  |  |  |  |  |  |  |  |  |  | 
O=CN1CCN(c2ccc3ccc(=O)[nH]c3n2)CC1 | > 100 µM | > 100 µM | > 100 µM | > 100 µM | > 100 µM | > 100 µM | > 100 µM | > 100 µM |  | > 100 µM |  |  |  |  |  |  |  |  |  | 
CCOC(=O)c1ccc(N(CCOS(C)(=O)=O)CCOS(C)(=O)=O)cc1 |  | 77.6 µM | 62.1 µM | > 100 µM | 39.3 µM |  | > 100 µM | > 100 µM | > 100 µM | > 100 µM |  |  |  |  |  |  |  |  |  | 
CC(C)(C)OC(=O)Cn1ncn(NC(=O)Cc2ccccc2)c1=S | > 10 µM | > 10 µM | > 10 µM | > 10 µM | > 10 µM |  | > 10 µM | > 10 µM | > 10 µM |  |  |  |  |  |  |  |  |  |  | 
NCCCN(CCCCN(CCCN)CCCc1ccccc1)CCCc1ccccc1 | 14.1 µM | 7.83 µM | 3.55 µM | 12.6 µM | 5.66 µM | 38.8 µM |  | 4.32 µM | 32.8 µM | 7.44 µM |  |  |  |  |  |  |  |  |  | 
COC(=O)CN1CCN(c2cccc3c2CCCC3)CC1 |  | > 100 µM | > 100 µM | > 100 µM | > 100 µM | 94.6 µM | > 100 µM | 65.8 µM | > 100 µM | > 100 µM |  |  |  |  |  |  |  |  |  | 
Nc1nc(SCc2ccccc2Cl)c2ncn(C3OC(CO)C(O)C3O)c2n1 (configuration not stated) | > 100 µM | > 100 µM | > 100 µM |  | > 100 µM |  | > 100 µM | > 100 µM | > 100 µM | > 100 µM |  |  |  |  |  |  |  |  |  | 
N#C[S-].[La+3].c1ccc(-c2ccccn2)nc1.c1ccc(-c2ccccn2)nc1.c1ccc(-c2ccccn2)nc1 | 99.6 µM |  | > 100 µM | > 100 µM | 55.9 µM | 67.9 µM | 60.9 µM | > 100 µM |  |  | 31.7 µM | 33.2 µM | 22 µM | 10.8 µM | 19.5 µM | 23.3 µM | 18.7 µM |  |  | 
O=C1c2cc3c(cc2NC(c2ccccc2F)C1O)OCO3 (configuration not stated) | 51.1 µM | 97.7 µM | 35.2 µM | > 70.8 µM | > 75.8 µM | > 64.7 µM | > 100 µM | 43.3 µM | 58.1 µM |  |  |  |  |  |  |  |  |  |  | 
CN(C)S(=O)(=O)c1ccc2[nH]c(O)c(C3=Nc4ccccc4C3=O)c2c1 | 28.5 µM | > 100 µM |  | > 100 µM | > 100 µM | 81.3 µM | > 100 µM | > 100 µM | 97.4 µM |  |  |  |  |  |  |  |  |  |  | 
O=C(/C=C/c1ccc(-c2ccccc2)cc1)NCc1ccc(C(=O)NCCc2ccccc2)cc1 | > 100 µM | 39.1 µM | 38.1 µM | > 100 µM | > 100 µM | > 100 µM | > 100 µM | > 100 µM | > 100 µM |  |  |  |  |  |  |  |  |  |  | 
Cc1ccc(/C=c2\cc3oc(=O)c4cccc(c4-3)c2=O)cc1 | > 100 µM | 68.2 µM | > 100 µM | > 100 µM | > 100 µM |  | > 100 µM | > 100 µM | > 100 µM | > 100 µM |  |  |  |  |  |  |  |  |  | 
CSc1cc(Cl)c(C)cc1S(=O)(=O)NC(=O)NNc1ccc(C)cc1 | > 100 µM | > 100 µM | > 100 µM | > 100 µM |  | > 100 µM | > 100 µM | > 100 µM | > 100 µM |  |  |  |  |  |  |  |  |  |  | 
C[N+]1(C)CCCC(C#N)(c2ccccc2)CC1 (configuration not stated) | > 100 µM | > 100 µM |  | > 100 µM | > 100 µM |  | > 100 µM | > 100 µM | > 100 µM | > 100 µM |  |  |  |  |  |  |  |  |  | 
[CH3][Sn]([CH3])([CH3])[S]C(=S)N1CCOCC1 | 29.3 µM | 1.67 µM |  | > 100 µM | > 25.1 µM | 17 µM | 14.8 µM | 1.5 µM | 73.8 µM | 1.3 µM | 9.81 µM |  | 4.96 µM | 6.24 µM | 2.72 µM | 3.49 µM | 0.28 µM | 70.1 nM | 217 nM | 15.3 µM
CCOC(=O)C(C)c1nc2cc(F)c(F)cc2[nH]c1=O (configuration not stated) | > 100 µM | > 100 µM | > 100 µM | > 100 µM | > 100 µM | > 100 µM | > 100 µM | > 100 µM |  | > 100 µM |  |  |  |  |  |  |  |  |  | 
NC(Cc1ccccc1)C(=O)OCN1C(=O)C2C3C=CC(C2C1=O)C1C(=O)N(COC(=O)C(N)Cc2ccccc2)C(=O)C31 (configuration not stated) |  | 49.7 µM | > 100 µM | > 100 µM | > 100 µM | > 100 µM | > 100 µM | 39.7 µM |  | 37.8 µM |  |  |  |  |  |  |  |  |  | 
Nc1nc(Cl)c(CO)c(NCC2(CO)CCC2)n1 |  | > 100 µM | > 100 µM | > 100 µM | > 100 µM | > 100 µM | > 100 µM | > 100 µM | > 100 µM | > 100 µM |  |  |  |  |  |  |  |  |  | 
COC(=O)[C@@H]1c2c(oc3cc(CO)cc(O)c3c2=O)C=C[C@H]1O | 35.4 µM | 25 µM | 9.41 µM | 27.4 µM | 14.2 µM | 51.5 µM | 4.91 µM | 14.2 µM | 20 µM |  |  |  |  |  |  |  |  |  |  | 
